Data from ChEMBL document CHEMBL1201862, “PubChem BioAssay data set” (2004).
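Test compounds were applied to cells in 96-well plates for 48 hours at 5 doses. At the GI50, growth is halved.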 Activity calls are given as the source filed them. Cut-off read from the data, not from the text of the source: active = GI50 up to about 1.1 µM and inactive = higher.

How the values were obtained:
Assay in all cases: NCI anticancer screen, dose series, 48 h
[1] = system: 786-0
[2] = system: A498
[3] = system: A549
[4] = system: ACHN
[5] = system: BT-549
[6] = system: CCRF-CEM
[7] = system: COLO 205
[8] = system: DU-145
[9] = system: EKVX
[10] = system: HCC 2998
[11] = system: HCT-116
[12] = system: HCT-15
[13] = system: HL-60
[14] = system: HOP-62
[15] = system: HT-29
[16] = system: Hs-578T
[17] = system: IGROV-1
[18] = system: K562
[19] = system: KM12
[20] = system: LOX IMVI
[21] = system: M14
[22] = system: MCF7
[23] = system: MDA-MB-231
[24] = system: MDA-MB-435
[25] = system: MOLT-4
[26] = system: Malme-3M
[27] = system: NCI-H226
[28] = system: NCI-H23
[29] = system: NCI-H460
[30] = system: NCI-H522
[31] = system: NCI/ADR-RES
[32] = system: OVCAR-3
[33] = system: OVCAR-4
[34] = system: OVCAR-5
[35] = system: OVCAR-8
[36] = system: PC-3
[37] = system: RPMI-8226
[38] = system: RXF 393
[39] = system: SF-268
[40] = system: SF-295
[41] = system: SF-539
[42] = system: SK-MEL-28
[43] = system: SK-MEL-2
[44] = system: SK-MEL-5
[45] = system: SK-OV-3
[46] = system: SN12C
[47] = system: SNB-19
[48] = system: SNB-75
[49] = system: SR
[50] = system: SW-620
[51] = system: T47D
[52] = system: TK-10
[53] = system: U-251
[54] = system: UACC-62
[55] = system: UO-31
[56] = system: CAKI-1
[57] = system: HOP-92
[58] = system: UACC-257

For `CNc1ccccc1S(=O)(=O)c1ccccc1[N+](=O)[O-]`, the GI50 [1] was > 100 µM (inactive), the GI50 [2] was > 100 µM (inactive) and the GI50 [3] was 77.3 µM (inactive). For the same compound, the GI50 [4] was 56.6 µM (inactive), the GI50 [5] was 23.6 µM (inactive) and the GI50 [6] was 43.5 µM (inactive). For the same compound, the GI50 [7] was > 100 µM (inactive), the GI50 [8] was > 100 µM (inactive) and the GI50 [9] was > 100 µM (inactive). The GI50 [10] was > 100 µM (inactive), the GI50 [11] was 66.5 µM (inactive) and the GI50 [12] was 46.3 µM. The GI50 [13] was 40 µM (inactive), the GI50 [14] was > 100 µM (inactive) and the GI50 [15] was 93.8 µM (inactive). For the same compound, the GI50 [16] was 40.2 µM (inactive), the GI50 [17] was > 100 µM (inactive) and the GI50 [18] was 42.6 µM (inactive). For the same compound, the GI50 [19] was > 100 µM (inactive), the GI50 [20] was 53 µM (inactive) and the GI50 [21] was 52.7 µM (inactive). For the same compound, the GI50 [22] was 85.1 µM (inactive), the GI50 [23] was > 100 µM (inactive) and the GI50 [24] was 38.2 µM (inactive). For the same compound, the GI50 [25] was 30.8 µM (inactive), the GI50 [26] was 99.8 µM (inactive) and the GI50 [27] was 65.6 µM (inactive). For the same compound, the GI50 [28] was 44.6 µM (inactive), the GI50 [29] was 58.7 µM (inactive) and the GI50 [30] was 26 µM (inactive). For the same compound, the GI50 [31] was 45.5 µM (inactive), the GI50 [32] was 68.4 µM (inactive) and the GI50 [33] was 27.2 µM (inactive). The GI50 [34] was > 100 µM (inactive), the GI50 [35] was > 10 µM (inactive) and the GI50 [36] was 52.4 µM (inactive). For the same compound, the GI50 [37] was > 100 µM (inactive), the GI50 [38] was > 100 µM (inactive) and the GI50 [39] was > 100 µM (inactive). The GI50 [40] was 80.2 µM (inactive), the GI50 [41] was > 100 µM (inactive) and the GI50 [42] was 91 µM (inactive). For the same compound, the GI50 [43] was 88.3 µM (inactive), the GI50 [44] was 23 µM (inactive) and the GI50 [45] was > 100 µM (inactive). For the same compound, the GI50 [46] was 92.7 µM (inactive), the GI50 [47] was 74 µM (inactive) and the GI50 [48] was 52.4 µM (inactive). The GI50 [49] was > 100 µM (inactive), the GI50 [50] was > 100 µM (inactive) and the GI50 [51] was 71.1 µM (inactive). The GI50 [52] was > 100 µM (inactive), the GI50 [53] was 69.7 µM (inactive) and the GI50 [54] was 48.8 µM (inactive). The GI50 [55] was 43.6 µM (inactive).
`N#Cc1ccc(C(O)C(F)(F)c2nc3ccccc3o2)cc1` (centres undefined) was tested, and the GI50 [1] was 84.1 µM (inactive), the GI50 [4] was 83.9 µM (inactive) and the GI50 [5] was 71.4 µM (inactive). The GI50 [56] was 31 µM (inactive), the GI50 [6] was 45.5 µM (inactive) and the GI50 [7] was > 100 µM (inactive). For the same compound, the GI50 [8] was 35.7 µM (inactive), the GI50 [9] was > 100 µM (inactive) and the GI50 [10] was > 100 µM (inactive). The GI50 [11] was 92.3 µM (inactive), the GI50 [12] was greater than 100 µM and the GI50 [13] was 43.6 µM (inactive). For the same compound, the GI50 [14] was > 100 µM (inactive), the GI50 [57] was 53.3 µM (inactive) and the GI50 [15] was 81.3 µM (inactive). For the same compound, the GI50 [16] was > 100 µM (inactive), the GI50 [17] was 95.5 µM (inactive) and the GI50 [18] was 18.2 µM (inactive). The GI50 [19] was 96.2 µM (inactive), the GI50 [20] was 42.9 µM (inactive) and the GI50 [21] was 55.2 µM (inactive). For the same compound, the GI50 [22] was 46.1 µM (inactive), the GI50 [23] was 18.9 µM (inactive) and the GI50 [24] was 44.8 µM (inactive). The GI50 [25] was 29.2 µM (inactive), the GI50 [27] was 32.9 µM (inactive) and the GI50 [28] was > 100 µM (inactive). For the same compound, the GI50 [29] was > 100 µM (inactive), the GI50 [31] was 60.5 µM (inactive) and the GI50 [33] was 95.5 µM (inactive). For the same compound, the GI50 [35] was 98.6 µM (inactive), the GI50 [36] was 33.1 µM (inactive) and the GI50 [37] was 31.2 µM (inactive). The GI50 [38] was > 100 µM (inactive), the GI50 [39] was > 100 µM (inactive) and the GI50 [40] was 41.8 µM (inactive). The GI50 [41] was 43.9 µM (inactive), the GI50 [42] was > 100 µM (inactive) and the GI50 [43] was > 100 µM (inactive). The GI50 [44] was 37.2 µM (inactive), the GI50 [45] was > 100 µM (inactive) and the GI50 [47] was > 100 µM (inactive). The GI50 [48] was > 100 µM (inactive), the GI50 [49] was 86.9 µM (inactive) and the GI50 [50] was > 100 µM (inactive). For the same compound, the GI50 [51] was 37.2 µM (inactive), the GI50 [52] was > 100 µM (inactive) and the GI50 [53] was > 100 µM (inactive). For the same compound, the GI50 [58] was 99.8 µM (inactive), the GI50 [54] was 40.9 µM (inactive) and the GI50 [55] was 30.3 µM (inactive).
For `COC(=O)C1=C(OC(=O)/C(=C/c2ccc(Cl)cc2)c2ccccc2)C(C(=O)OC)[C@@]2(O)[C@@H](C(=O)OC)[C@H](C)C[C@@H]1[C@@H]2C(=O)OC` (some centres undefined), the GI50 [1] was > 100 µM (inactive), the GI50 [2] was 5.55 µM (inactive) and the GI50 [3] was 7.85 µM (inactive). The GI50 [4] was > 100 µM (inactive), the GI50 [5] was 22.2 µM (inactive) and the GI50 [56] was > 100 µM (inactive). The GI50 [6] was > 100 µM (inactive), the GI50 [7] was > 100 µM (inactive) and the GI50 [8] was > 100 µM (inactive). The GI50 [9] was 27.2 µM (inactive), the GI50 [10] was > 100 µM (inactive) and the GI50 [11] was > 100 µM (inactive). The GI50 [12] was greater than 100 µM, the GI50 [13] was > 100 µM (inactive) and the GI50 [14] was > 100 µM (inactive). The GI50 [57] was 0.573 µM (active), the GI50 [15] was > 100 µM (inactive) and the GI50 [16] was 37 µM (inactive). The GI50 [17] was 23.6 µM (inactive), the GI50 [18] was > 100 µM (inactive) and the GI50 [19] was > 100 µM (inactive). The GI50 [20] was > 100 µM (inactive), the GI50 [21] was > 100 µM (inactive) and the GI50 [22] was > 100 µM (inactive). For the same compound, the GI50 [23] was > 100 µM (inactive), the GI50 [24] was > 100 µM (inactive) and the GI50 [25] was > 100 µM (inactive). For the same compound, the GI50 [26] was > 100 µM (inactive), the GI50 [27] was > 100 µM (inactive) and the GI50 [28] was 9.73 µM (inactive). The GI50 [29] was 61.4 µM (inactive), the GI50 [30] was 6 µM (inactive) and the GI50 [31] was 37.4 µM (inactive). For the same compound, the GI50 [32] was > 100 µM (inactive), the GI50 [33] was > 100 µM (inactive) and the GI50 [34] was > 100 µM (inactive). For the same compound, the GI50 [35] was 4.45 µM (inactive), the GI50 [36] was 37.5 µM (inactive) and the GI50 [37] was > 100 µM (inactive). The GI50 [38] was 3.01 µM (inactive), the GI50 [39] was > 100 µM (inactive) and the GI50 [40] was 6.79 µM (inactive). The GI50 [41] was > 100 µM (inactive), the GI50 [42] was > 100 µM (inactive) and the GI50 [43] was > 100 µM (inactive). The GI50 [44] was > 100 µM (inactive), the GI50 [45] was > 100 µM (inactive) and the GI50 [46] was > 100 µM (inactive). The GI50 [47] was 77.8 µM (inactive), the GI50 [48] was 29.6 µM (inactive) and the GI50 [49] was > 100 µM (inactive). The GI50 [50] was > 100 µM (inactive), the GI50 [51] was > 100 µM (inactive) and the GI50 [52] was > 100 µM (inactive). For the same compound, the GI50 [53] was 26.7 µM (inactive), the GI50 [58] was > 100 µM (inactive) and the GI50 [54] was 83.6 µM (inactive). The GI50 [55] was > 100 µM (inactive).
